Results as given in the supplement of paper PMC11061612.

Assays:
Assay in all cases: Bliss excess, mean over the matrix (fraction); higher = more synergy
[1] = system: DOK (Oral Cavity Carcinoma)
Method in brief: (§1)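 Bliss excess equals the observed combination effect minus the expected value EA + EB − EA·EB, where EA and EB are the effects of each agent alone. Combination Emax is the second-highest inhibition within the matrix. Inhibition was scaled from CellTiter-Glo 2.0 luminescence, with 0 set by vehicle wells and 1 by blank wells, after 72 hours of two-drug dosing of cells plated in 1536-well plates.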

Saos-2 (Osteosarcoma) = system: Saos-2 (Osteosarcoma)
Method in brief: as §1

[2] = system: HOP-92 (Non-Small Cell Lung Carcinoma)
Method in brief: as §1

[3] = system: PA-TU-8902 (Pancreatic Carcinoma)
Method in brief: as §1

[4] = system: 647-V (Bladder Carcinoma)
Method in brief: as §1

[5] = system: JHH-6 (Hepatocellular Carcinoma)
Method in brief: as §1

HCC38 (Breast Carcinoma) = system: HCC38 (Breast Carcinoma)
Method in brief: as §1

[6] = system: RCC10RGB (Kidney Carcinoma)
Method in brief: as §1

SK-MEL-1 (Melanoma) = system: SK-MEL-1 (Melanoma)
Method in brief: as §1

[7] = system: SLVL (B-Cell Non-Hodgkin's Lymphoma)
Method in brief: as §1

[8] = system: GDM-1 (Acute Myeloid Leukemia)
Method in brief: as §1

[9] = system: NCI-H1688 (Small Cell Lung Carcinoma)
Method in brief: as §1

[10] = system: U-118-MG (Low Grade Glioma)
Method in brief: as §1

A172 (Glioblastoma) = system: A172 (Glioblastoma)
Method in brief: as §1

[11] = system: MEG-01 (Chronic Myelogenous Leukemia)
Method in brief: as §1

[12] = system: HCC-827 (Lung Adenocarcinoma)
Method in brief: as §1

CS1 (Chondrosarcoma) = system: CS1 (Chondrosarcoma)
Method in brief: as §1

D-392MG (Glioblastoma) = system: D-392MG (Glioblastoma)
Method in brief: as §1

[13] = system: ETK-1 (Biliary Tract Carcinoma)
Method in brief: as §1

[14] = system: SK-LMS-1 (Other Solid Carcinomas)
Method in brief: as §1

Row | SMILES | Bliss excess [1] | Bliss excess (Saos-2 (Osteosarcoma)) | Bliss excess [2] | Bliss excess [3] | Bliss excess [4] | Bliss excess [5] | Bliss excess (HCC38 (Breast Carcinoma)) | Bliss excess [6] | Bliss excess (SK-MEL-1 (Melanoma)) | Bliss excess [7] | Bliss excess [8] | Bliss excess [9] | Bliss excess [10] | Bliss excess (A172 (Glioblastoma)) | Bliss excess [11] | Bliss excess [12] | Bliss excess (CS1 (Chondrosarcoma)) | Bliss excess (D-392MG (Glioblastoma)) | Bliss excess [13] | Bliss excess [14]
1 | COc1nnc2ccc(N3CCC(c4ccc(OCCN5CCN(C)C(=O)[C@H]5C)cc4)CC3)nn12 [AZD5153] + Cc1c2c(nn1C)CSCc1cc(n(C)n1)CSc1cc(c3ccccc3c1)OCCCc1c(C(=O)O)n(C)c3c-2c(Cl)ccc13 [AZD5991] (first compound max 1 µM, 7x7, partner max 1 µM) | -0.0051 | 0.0143 | -0.001 | -0.0316 | -0.0135 | -0.0727 | -0.0019 | -0.0843 | -0.0016 | -0.119 | 0.0307 | 0.0155 | -0.0341 | -0.0698 | -0.0104 | -0.0225 | -0.0342 | -0.0388 | -0.0436 | 0.0003
2 | COc1nnc2ccc(N3CCC(c4ccc(OCCN5CCN(C)C(=O)[C@H]5C)cc4)CC3)nn12 [AZD5153] + Cn1cnc2c(F)c(Nc3ccc(Br)cc3Cl)c(C(=O)NOCCO)cc21 [Selumetinib] (first compound max 1 µM, 7x7, partner max 10 µM) | -0.0297 | -0.0452 | 0.0604 | -0.0869 | 0.0604 | 0.0053 | -0.0392 | -0.114 | 0.0933 | -0.0385 | -0.0266 | -0.0216 | -0.016 | -0.0304 | -0.0222 | -0.0543 | 0.01 | 0.0081 | -0.0451 | 0.0383
3 | Cc1c2c(nn1C)CSCc1cc(n(C)n1)CSc1cc(c3ccccc3c1)OCCCc1c(C(=O)O)n(C)c3c-2c(Cl)ccc13 [AZD5991] + C1CN(CCC1(C(=O)N[C@@H](CCO)C2=CC=C(C=C2)Cl)N)C3=NC=NC4=C3C=CN4 [Capivasertib] (first compound max 1 µM, 7x7, partner max 3 µM) | -0.0113 | 0.0473 | -0.0294 | -0.041 | -0.0059 | -0.0163 | 0.0062 | -0.0085 | -0.0373 | 0.004 | 0.0461 | 0.015 | -0.0205 | -0.0001 | -0.0122 | -0.0212 | -0.0261 | 0.0557 | -0.0525 | 0.0054
4 | Cc1c2c(nn1C)CSCc1cc(n(C)n1)CSc1cc(c3ccccc3c1)OCCCc1c(C(=O)O)n(C)c3c-2c(Cl)ccc13 [AZD5991] + CC1(C)CCC(CN2CCN(c3ccc(C(=O)NS(=O)(=O)c4ccc(NCC5CCOCC5)c([N+](=O)[O-])c4)c(Oc4cnc5[nH]ccc5c4)c3)CC2)=C(c2ccc(Cl)cc2)C1 [Venetoclax] (first compound max 1 µM, 7x7, partner max 1 µM) | 0.0712 | 0.0174 | 0.0247 | -0.0595 | -0.0271 | -0.0417 | -0.0307 | -0.0086 | -0.0536 | 0.147 | 0.174 | 0.105 | -0.0328 | -0.0222 | 0.105 | -0.0269 | -0.0418 | 0.0314 | -0.0526 | -0.0422
5 | Cc1c2c(nn1C)CSCc1cc(n(C)n1)CSc1cc(c3ccccc3c1)OCCCc1c(C(=O)O)n(C)c3c-2c(Cl)ccc13 [AZD5991] + CCN(CCO)CCCOc1ccc2c(Nc3cc(CC(=O)Nc4cccc(F)c4)[nH]n3)ncnc2c1 [AZD2811] (first compound max 1 µM, 7x7, partner max 1 µM) | 0.0524 | 0.0534 | 0.0184 | -0.0356 | 0.0896 | -0.0298 | 0.058 | -0.0567 | -0.0194 | 0.0734 | 0.0444 | 0.0059 | 0.0042 | -0.0101 | 0.002 | 0.0011 | -0.044 | 0.0121 | -0.0018 | -0.0538
6 | Cc1c2c(nn1C)CSCc1cc(n(C)n1)CSc1cc(c3ccccc3c1)OCCCc1c(C(=O)O)n(C)c3c-2c(Cl)ccc13 [AZD5991] + CN(C)CCCOc1ccc(-c2ccc3ncc4c(c3c2)n(C2CCOCC2)c(=O)n4C)cn1 [AZD0156] (first compound max 1 µM, 7x7, partner max 1 µM) | -0.0121 | -0.0158 | -0.044 | 0.0116 | 0.015 | -0.0079 | -0.0182 | -0.0619 | -0.0322 | 0.0198 | 0.0079 | -0.0098 | -0.0035 | -0.0019 | -0.007 | 0.011 | 0.0158 | -0.0225 | -0.0503 | -0.0645
7 | Cc1c2c(nn1C)CSCc1cc(n(C)n1)CSc1cc(c3ccccc3c1)OCCCc1c(C(=O)O)n(C)c3c-2c(Cl)ccc13 [AZD5991] + C[C@@H](Nc1cc(F)cc(F)c1)c1cc(C(=O)N(C)C)cc2c(=O)cc(N3CCOCC3)oc12 [AZD8186] (first compound max 1 µM, 7x7, partner max 3 µM) | 0.003 | -0.0271 | 0.0222 | -0.0361 | 0.0458 | -0.0281 | 0.011 | -0.0349 | -0.0232 | -0.0262 | 0.0355 | 0.0171 | 0.0012 | -0.004 | 0.0019 | 0.0064 | 0.0031 | 0.0111 | -0.0221 | -0.0056
8 | Cc1c2c(nn1C)CSCc1cc(n(C)n1)CSc1cc(c3ccccc3c1)OCCCc1c(C(=O)O)n(C)c3c-2c(Cl)ccc13 [AZD5991] + Cn1cnc2c(F)c(Nc3ccc(Br)cc3Cl)c(C(=O)NOCCO)cc21 [Selumetinib] (first compound max 1 µM, 7x7, partner max 3 µM) | 0.0495 | -0.007 | -0.0332 | -0.0466 | 0.0749 | -0.0116 | -0.0386 | 0.0528 | -0.01 | 0.0516 | 0.0387 | 0.0484 | -0.0054 | 0.0179 | 0.139 | -0.0091 | -0.0136 | 0.0339 | -0.005 | -0.0257
9 | C[C@@H]1COCCN1c1cc(C2([S@](C)(=N)=O)CC2)nc(-c2ccnc3[nH]ccc23)n1 [AZD6738] + O=C(c1cc(Cc2n[nH]c(=O)c3ccccc23)ccc1F)N1CCN(C(=O)C2CC2)CC1 [Olaparib] (first compound max 10 µM, 7x7, partner max 10 µM) | 0.0048 | 0.0118 | 0.0158 | -0.0251 | 0.0753 | -0.0039 | 0.0122 | 0.0483 | -0.0012 | -0.0355 | -0.0135 | 0.0133 | 0.0125 | -0.0398 | -0.0458 | -0.0086 | 0.0318 | -0.0067 | 0.0197 | 0.0027
10 | Cc1cc2ncnn2cc1Nc1ncc2c(n1)n(C1CCOCC1)c(=O)n2C [AZD7648] + C=CCn1c(=O)c2cnc(Nc3ccc(N4CCN(C)CC4)cc3)nc2n1-c1cccc(C(C)(C)O)n1 [AZD1775] (first compound max 10 µM, partner max 1 µM) | 0.0331 | -0.0696 | -0.0022 | 0.0152 | 0.0132 | 0.011 | -0.0124 | 0.0016 | -0.0561 | -0.035 | -0.0239 | -0.0094 | -0.0041 | 0.0587 | -0.0209 | -0.0044 | 0.0046 | 0.0035 | -0.0144 | -0.0661
11 | Cc1cc2ncnn2cc1Nc1ncc2c(n1)n(C1CCOCC1)c(=O)n2C [AZD7648] + CCN(CCO)CCCOc1ccc2c(Nc3cc(CC(=O)Nc4cccc(F)c4)[nH]n3)ncnc2c1 [AZD2811] (first compound max 10 µM, 7x7, partner max 1 µM) | 0.0123 | 0.0364 | -0.0038 | 0.0315 | 0.0618 | 0.0238 | -0.0383 | 0.0069 | -0.0162 | 0.0756 | -0.036 | 0.0154 | 0.0172 | 0.0537 | -0.0233 | -0.0026 | -0.0403 | -0.0108 | -0.0025 | -0.0162
12 | Cc1cc2ncnn2cc1Nc1ncc2c(n1)n(C1CCOCC1)c(=O)n2C [AZD7648] + CN(C)CCCOc1ccc(-c2ccc3ncc4c(c3c2)n(C2CCOCC2)c(=O)n4C)cn1 [AZD0156] (first compound max 10 µM, 7x7, partner max 1 µM) | -0.0075 | -0.016 | -0.0136 | -0.0013 | 0.0401 | -0.0033 | 0.0157 | -0.0735 | -0.0082 | -0.0164 | -0.0215 | 0.0029 | -0.0217 | -0.034 | -0.0108 | 0.0386 | -0.0028 | -0.0405 | -0.0041 | 0.0028
13 | Cc1cc2ncnn2cc1Nc1ncc2c(n1)n(C1CCOCC1)c(=O)n2C [AZD7648] + C[C@@H]1COCCN1C2=NC(=NC(=C2)C3(CC3)[S@](=N)(=O)C)C4=C5C=CNC5=NC=C4 [AZD6738] (first compound max 10 µM, 7x7, partner max 10 µM) | 0.0441 | -0.0169 | 0.0104 | 0.0186 | 0.0987 | 0.036 | 0.0245 | 0.0076 | -0.0388 | -0.0178 | -0.022 | 0.0136 | -0.0049 | -0.0552 | -0.0473 | 0.0048 | 0.0024 | 0.0217 | -0.0173 | 0.0215
14 | Cc1cc2ncnn2cc1Nc1ncc2c(n1)n(C1CCOCC1)c(=O)n2C [AZD7648] + O=C(c1cc(Cc2n[nH]c(=O)c3ccccc23)ccc1F)N1CCN(C(=O)C2CC2)CC1 [Olaparib] (first compound max 10 µM, 7x7, partner max 10 µM) | -0.0334 | -0.0322 | -0.0144 | -0.0237 | -0.0098 | -0.0516 | -0.0481 | -0.0619 | 0.0039 | -0.0027 | -0.011 | -0.02 | -0.0441 | -0.007 | -0.0086 | -0.028 | -0.0193 | -0.0456 | 0.0223 | -0.0295
15 | NC1(C(=O)N[C@@H](CCO)c2ccc(Cl)cc2)CCN(c2ncnc3[nH]ccc23)CC1 [Capivasertib] + CC(=O)c1c(C)c2cnc(Nc3ccc(N4CCNCC4)cn3)nc2n(C2CCCC2)c1=O [Palbociclib] (first compound max 10 µM, 7x7, partner max 10 µM) | 0.016 | 0.0005 | 0.0322 | -0.0606 | 0.0129 | -0.0503 | -0.023 | -0.0368 | -0.0307 | -0.024 | 0.0262 | 0.017 | -0.0154 | -0.0183 | -0.0355 | -0.034 | 0.016 | 0.0094 | -0.0711 | 0.0514
